Calls of active or inactive are those of the source. No cut-off for these calls is given here.
What was measured:
Format in all cases: functional, cell-based
KG-1 [1] = test: Cytotoxicity against human KG-1 cells assessed as reduction in cell viability incubated for 48 hrs by CCK-8 assay; settings: KG-1, 48 h
HL-60 [2] = test: Cytotoxicity against human HL-60 cells assessed as reduction in cell viability incubated for 48 hrs by CCK-8 assay; settings: HL-60, 48 h
KG-1 [3] = test: Induction of apoptosis in human KG-1 cells assessed as caspase 3 activation incubated for 48 hrs by Western blot analysis; settings: dose 10-30 µM
HL-60 [4] = test: Induction of apoptosis in human HL-60 cells assessed as increase in Bax expression at 10 to 30 uM incubated for 48 hrs by Western blot analysis; settings: dose 10-30 µM
KG-1 [5] = test: Induction of apoptosis in human KG-1 cells assessed as caspase 9 activation incubated for 48 hrs by Western blot analysis; settings: dose 10-30 µM
HL-60 [6] = test: Induction of apoptosis in human HL-60 cells assessed as caspase 3 activation incubated for 48 hrs by Western blot analysis; settings: dose 10-30 µM
HL-60 [7] = test: Induction of apoptosis in human HL-60 cells assessed as caspase 9 activation incubated for 48 hrs by Western blot analysis; settings: dose 10-30 µM
KG-1 [8] = test: Induction of apoptosis in human KG-1 cells assessed as increase in PARP cleavage incubated for 48 hrs by Western blot analysis; settings: dose 10-30 µM
HL-60 [9] = test: Induction of apoptosis in human HL-60 cells assessed as increase in PARP cleavage incubated for 48 hrs by Western blot analysis; settings: dose 10-30 µM
HL-60 [10] = test: Induction of apoptosis in human HL-60 cells assessed as decrease in Bcl2 expression incubated for 48 hrs by Western blot analysis; settings: dose 10-30 µM
HL-60 [11] = test: Induction of apoptosis in human HL-60 cells assessed as increase in Cyt-c expression at 10 to 30 uM incubated for 48 hrs by Western blot analysis; settings: dose 10-30 µM

## COC(=O)/C=C1\CC[C@H]2[C@@H](C(=O)[C@H](O)[C@@H]3[C@]2(C)CC[C@H](O)[C@]3(C)C(=O)OC)[C@H]1C
KG-1 [1]
  IC50: > 50 µM
HL-60 [2]
  IC50: 25.7 µM

## COC(=O)[C@]1(C)[C@@H]2[C@@H](O)C(=O)[C@H]3[C@@H](C)/C(=C/C(=O)O)CC[C@@H]3[C@@]2(C)CC[C@@H]1O
KG-1 [1]
  IC50: > 50 µM
HL-60 [2]
  IC50: 28.7 µM

## CCOC(C)=O [ETHYL ACETATE]
KG-1 [1]
  IC50: > 300 µg/mL
HL-60 [2]
  IC50: 216 µg/mL

## CCCCCC [HEXANE]
HL-60 [2]
  IC50: > 300 µg/mL

## ClCCl [METHYLENE CHLORIDE]
KG-1 [1]
  IC50: 149 µg/mL
HL-60 [2]
  IC50: 116 µg/mL

## COC(=O)CC1=CC[C@H]2[C@@H](C(=O)[C@H](O)[C@@H]3[C@]2(C)CCC[C@]3(C)C(=O)OC)[C@H]1C
KG-1 [1]
  IC50: 42.2 µM
HL-60 [2]
  IC50: 28.5 µM

## CC[C@@]1(O)C(=O)OCc2c1cc1n(c2=O)Cc2cc3ccccc3nc2-1 [CAMPTOTHECIN]
KG-1 [1]
  IC50: 1.6 µM
HL-60 [2]
  IC50: 1.7 µM

## COC(=O)[C@]1(C)[C@@H]2C(=O)[C@H](OC(C)=O)[C@H]3[C@@H](C)/C(=C/C(=O)O)CC[C@@H]3[C@@]2(C)CC[C@@H]1O
KG-1 [3]
  Activity: Dose-dependent effect
HL-60 [4]
  Activity: Active
KG-1 [5]
  Activity: Dose-dependent effect
HL-60 [6]
  Activity: Dose-dependent effect
HL-60 [7]
  Activity: Dose-dependent effect
KG-1 [8]
  Activity: Dose-dependent effect
HL-60 [9]
  Activity: Dose-dependent effect
KG-1 [1]
  IC50: 18.6 µM
HL-60 [2]
  IC50: 15.2 µM
HL-60 [10]
  Activity: Dose-dependent effect
HL-60 [11]
  Activity: Active

## COC(=O)[C@]1(C)[C@@H]2C(=O)[C@H](O)[C@H]3[C@@H](C)/C(=C/C(=O)O)CC[C@@H]3[C@@]2(C)CC[C@@H]1O
KG-1 [1]
  IC50: 35.7 µM
HL-60 [2]
  IC50: 24.3 µM

— ChEMBL document CHEMBL4673274, “Cytotoxic components from the leaves of Erythrophleum fordii induce human acute leukemia cell apoptosis through caspase 3 activation and PARP cleavage” (Bioorg Med Chem Lett, 2021)
